Test results published in patent publication US9212204B2, “Treatment of rett syndrome using glycyl-L-2-methylprolyl-L-glutamic acid” (priority 2011, dated 2015).
Non-standard residues stand in square brackets, D forms with d. Residues, ends and D or L forms follow the SMILES beside them. αMeP = C[C@@]1(C(=O)O)CCCN1

Experiments:
MeCP2-/y mice = experiment: Heart rate measurements; format: in vivo, mouse; conditions: 8 weeks old, treated from P15
Experimental: Real time cardiac pulse rate is measured using a tail clip sensor (Mouse OX Oximeter—Oakmont, Pa.). Mice are not anesthetized but physically restrained in a fitted open plastic tube. Prior to the recording session the tube is placed overnight in the cages housing the experimental animals to allow habituation. Body temperature is maintained at ˜82-84° F. throughout the recording time. We record 3 trials of 15 minutes for each mouse, mice are 8 weeks old and treated with vehicle or G-2-MePE from P15.
To examine heart rate abnormalities in MeCP2−/y mice and the effect of G-2-MePE treatment, we monitor real time cardiac pulse rate in non-anesthetized wild type and MeCP2−/y animals treated with vehicle or G-2-MePE.

[1] = system: slices of hippocampus from MeCP2 deficient mice; experiment: Hippocampal long-term potentiation in MeCP2 deficient mice; format: in vivo, mouse; conditions: 20 mg/kg/day i.p. from week 4 to week 9; vs saline
Source text: MeCP2 deficient mice have been previously reported to suffer from functional and ultrastructural synaptic dysfunction, significant impairment of hippocampus-dependent memory and hippocampal long-term potentiation (LTP) (Moretti et al. The Journal of Neuroscience. 2006. 26(1):319-327). To test the effects of the G-2-MePE treatment on synaptic function in the RTT model we compared hippocampal LTP in both vehicle and G-2-MePE treated animals at 9 weeks of age. To do so, we measured the slope of the fEPSP as a % of baseline potential in neurons in slices of hippocampus from MeCP2 deficient mice treated with either saline or G-2-MePE (FIG. 23).

17 month old rats = experiment: 8-arm radial maze test, spatial working memory; format: in vivo, rat; conditions: for Working Correct Choice WCC8-12 across days: 9-day washout
Source text: Five months after the original experiment the now 17 month old rats were retested for spatial working memory in a radial arm maze.
The apparatus consists of a central platform communicating with 8 identical arms, each with a food cup at the end of the arm
Rats were partially food-deprived for at least 10 days prior to, and throughout the radial maze procedure.
The maze was assembled and positioned so that the experimenter could clearly observe the rats' behavior from a predetermined location. The experimenter numbered the arms of the maze according to their orientation from one to eight in a clock-wise direction.
On day one the doors were inserted into the arms and each rat was confined in the central platform with 20 food pellets for 5 minutes. […] The following day the rats were allowed five minutes to explore the whole maze. All arms were baited with two food pellets in the food cup located at the end of each arm, and one pellet at both the entrance and middle of each arm. This was repeated for at least five, but up to eight days for rats that explored fewer than eight arms in two consecutive sessions. […] At this point it was decided that one of the old rats that had made only one arm entry on eight of the nine days should be excluded from future testing in this procedure. Otherwise all rats were included regardless of the amount of exploring they performed in pre-training.
30 days before the test (five days after pre-training) the 17 Male Wistar month old rats were implanted (under halothane anesthesia) with sub-cutaneous mini-osmotic pumps (Alzet) to dispense drug continuously for 3 weeks. At the completion of the infusion the pumps were removed and the wounds re-sutured (9-day washout allowed).
3. G-2-MePE low dose (2.4 mg/kg/day) n=13
4. G-2-MePE high dose (12.4 mg/kg/day) n=5
Saline and the low dose groups are comprised of all the rats that received those treatments in phase 1 of this experiment (when the rats were 12 months old) regardless of whether they had the one or three week treatment. One rat in each of the saline and high dose groups have been dropped because of skin tumors.
Working memory testing commenced on the ninth day of washout. Rats received 10 daily training sessions over 12 days. The procedure was the same as for pre-training but only the food cups were baited. Rats had 6 minutes to make up to 16 choices by visiting any of the eight arms. A choice was defined as occurring when all four paws were inside an arm. The experimenter recorded the sequence of arm entries with pen and paper, Sessions were terminated after all eight arms had been entered, 16 choices made, or 6 minutes had elapsed. The time taken to enter all eight arms, when this occurred, was recorded.
An arm choice was considered correct when the rat entered an arm not previously visited. […]

With `C[C@@]1(C(=O)N[C@@H](CCC(=O)O)C(=O)O)CCCN1C(=O)CN` [Example G-2-MePE, Glycyl-L-2-methylprolyl-L-glutamic acid] (H-Gly-[αMeP]-Glu-OH) the “occurrence of irregular heart rate with a lower average rate” value (MeCP2-/y mice) was “significantly reduced”, the “slope of fEPSP (hippocampal LTP)” value [1] was “increased” and the “Correct Choice CC8-12” value (17 month old rats; all groups, 10 days of testing) was “no significant group effect”. For the same molecule, the “Working Correct Choice WCC8-12 across days” value (17 month old rats; high dose 12.4 mg/kg/day s.c. 3 weeks) was “greatest improvement across days”, the “correct maze choices averaged across days” value (17 month old rats; higher dose, vs vehicle treated rats, p<0.05, FIG. 18B) was “more correct entries” and the “Working Correct Choice WCC8-12 across days” value (17 month old rats; low dose 2.4 mg/kg/day s.c. 3 weeks, vs saline) was “very little difference”.
